Laboratory results reported in publication PMC7113892 (Antiviral Research, 2017).

Assays:
[1] = biological target: human RNA N7-methyltransferase (RNMT) (Homo sapiens, UniProt O43148); assay: biochemical
DENV-2 NS5-RdRp = DENV-2 NS5-RdRp (Dengue virus type 2, UniProt P14340); type: biochemical; details: 50 μM

Sequence of human RNA N7-methyltransferase (RNMT) (O43148 whole entry, looked up): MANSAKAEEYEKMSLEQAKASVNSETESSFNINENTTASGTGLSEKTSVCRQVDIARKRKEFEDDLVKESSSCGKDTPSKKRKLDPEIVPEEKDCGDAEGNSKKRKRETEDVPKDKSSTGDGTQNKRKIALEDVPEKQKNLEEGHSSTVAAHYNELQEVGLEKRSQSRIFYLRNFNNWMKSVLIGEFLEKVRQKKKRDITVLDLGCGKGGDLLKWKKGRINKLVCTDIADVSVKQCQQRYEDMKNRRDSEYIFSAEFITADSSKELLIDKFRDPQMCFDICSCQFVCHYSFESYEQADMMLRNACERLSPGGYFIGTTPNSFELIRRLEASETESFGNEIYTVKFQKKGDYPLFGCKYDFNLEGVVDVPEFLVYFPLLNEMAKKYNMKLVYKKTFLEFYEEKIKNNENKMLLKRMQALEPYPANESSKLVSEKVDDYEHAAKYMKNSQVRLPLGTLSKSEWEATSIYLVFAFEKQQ

With Nc1ncnc2c1ncn2[C@@H]1O[C@H](C[C@@H](N)CC[C@H](N)C(=O)O)[C@@H](O)[C@H]1O [Sinefungin] as the compound, how does the IC50 [1] read?
The IC50 was under 50 nM.

What about the “Inhibition of RdRp activity of DENV NS5 (in words)” value (DENV-2 NS5-RdRp) of the same compound?
Its value is “no inhibition detected”.
